The subject of this experiment is L. donovani-infected THP-1 macrophages, intracellular amastigote imaging. The experiment in a line: intracellular L. donovani amastigote inhibition, imaging, THP-1 host macrophages, host toxicity (AID 1159564).
Where [1] appears, read: measured here: THP-1 host cell toxicity.
[2] abbreviates: measured here: amastigotes per macrophage.

The IC50 is the point on the concentration scale where inhibition reaches its midpoint.

Each structure is given as a SMILES string. Active and inactive are the calls of the source. The rule behind the calls is not given here. A value given as a limit tells only on which side of the number the result lay.

Turning to `CC(C)(C)Nc1nc(Nc2ccc3c(c2)CS(=O)(=O)C3)nc2[nH]ccc12`, the IC50 is 6.3 µM. Further, the IC50 under setting [1] was determined as 20 µM. The IC50 under setting [2] was 5 µM.
With `CCOc1ccc(N(C)S(=O)(=O)c2ccc3[nH]cc(C(=O)NC4CCCC4)c(=O)c3c2)cc1`, the IC50 is 32 µM. Under setting [1], this molecule returned an IC50 of 25 µM. Also, the IC50 under setting [2] was determined as 32 µM.
In the case of `O=C(NC1C(=O)N(c2ccccc2)C1c1cccnc1)c1ccc(Cl)s1` (configuration not stated), the IC50 was > 50 µM (inactive). The IC50 under setting [1] is > 50 µM. Moreover, the half-inhibitory concentration (IC50) under setting [2] was determined as 0.79 µM.
As for `CCN(Cc1cccs1)C(=O)CSc1nnc(-c2ccc3c(c2)OCO3)o1`, the IC50 is 2 µM. For the same molecule, the IC50 under setting [1] is > 50 µM. The molecule further returned an IC50 under setting [2] of 2 µM.
Consider `O=C(c1ccc(Cl)cc1)c1ccc(OC(=O)N2CCOCC2)cc1`, for which the IC50 was 5 µM. Moreover, the IC50 under setting [1] was > 50 µM. Under setting [2], this molecule registered an IC50 of 2 µM.
As to `COc1ccc(C(C)N(C)c2ncc3c(N)nc(N)nc3n2)cc1F` (configuration not stated), the IC50 was 16 µM. Also, under setting [1], the concentration for half-maximal inhibition (IC50) is > 50 µM. For the same molecule, the IC50 under setting [2] was 13 µM.
On to `Cc1cc(-c2cccc3ccccc23)nc2nc(N)nc(N)c12`, for which the IC50 is 5 µM. In addition, the IC50 under setting [1] is 50 µM. The same molecule returned an IC50 under setting [2] of 1 µM.
For `C[C@@H](Oc1cc(-n2cnc3ccc(C(O)CO)cc32)sc1C(N)=O)c1ccccc1C(F)(F)F` (some centres not stated), in that order: 20 µM, 16 µM and 13 µM.
Take `CC(=O)Nc1cccc(Nc2ncnc3nc[nH]c23)c1`: the IC50 was > 50 µM (inactive). This molecule came in with an IC50 under setting [1] of 10 µM. For the same molecule, under setting [2], the IC50 was determined as 40 µM.
In the case of `CN(C)CCN(C)Cc1ccc(F)cc1NS(=O)(=O)c1ccc(Cl)c(Cl)c1`, the IC50 is 7.9 µM. Under setting [1], this molecule registered an IC50 of 32 µM. The molecule also gave an IC50 under setting [2] of 2.5 µM.
The matching figures for `Cc1ccc(-c2csc(NC(=O)C=Cc3ccc(S(=O)(=O)N4CCOCC4)cc3)n2)o1`: 5 µM, > 50 µM and 0.79 µM.
On to `O=C(CCCNC(=O)c1ccc(Cl)cc1)Nc1nc(-c2ccccn2)cs1`, for which the IC50 is 5 µM. Further, the IC50 under setting [1] is > 50 µM. Further, the 50% inhibitory concentration (IC50) under setting [2] worked out at 3.2 µM.
On to `O=C(CC1(O)C(=O)N(Cc2cccs2)c2ccc(Br)cc21)c1cccnc1` (configuration not stated), for which the IC50 was > 50 µM (inactive). The molecule also displayed an IC50 under setting [1] of 20 µM. The IC50 under setting [2] is > 50 µM.
Turning to `CN(Cc1nc2c(C(=O)N3CCN(Cc4ccccc4)CC3)cccc2[nH]1)C1CCCc2cccnc21` (configuration not stated), the IC50 is 1.3 µM. Under setting [1], this molecule displayed an IC50 of 10 µM. Under setting [2], this molecule registered an IC50 of 0.79 µM.
With `CN(C)S(=O)(=O)c1cccc(CSc2nnc(-c3ccc4c(c3)OCO4)o2)c1`, the IC50 is 2 µM. Besides, the 50% inhibitory concentration (IC50) under setting [1] is > 50 µM. Further, the IC50 under setting [2] was 0.63 µM.
As to `COc1ccc(CN2C(=O)C(O)(CC(=O)c3ccncc3)c3cc(Br)ccc32)cc1OC` (configuration not stated), the IC50 was 25 µM. In addition, the IC50 under setting [1] amounted to 40 µM. Also, under setting [2], the IC50 was 20 µM.
Turning to `Cc1c([N+](=O)[O-])c(C(=O)Nc2sc3c(c2C#N)CCC(C)C3)nn1C` (configuration not stated), the IC50 is 32 µM. Under setting [1], the IC50 is > 50 µM. For the same molecule, under setting [2], the IC50 stood at 16 µM.
For the molecule `NC(=O)c1ncc(N[C@@H]2CCCNC2)nc1Nc1cccc(Cl)c1`, the IC50 was 0.79 µM. Besides, the IC50 under setting [1] turned out to be 2 µM. Under setting [2], this molecule displayed an IC50 of 0.5 µM.
Turning to `Cc1[nH]nc(Nc2ccnc3[nH]ccc23)c1C`, the IC50 was > 50 µM (inactive). Moreover, the IC50 under setting [1] was > 50 µM. The IC50 under setting [2] is > 50 µM.
With `CCC(CC)C(=O)Nc1ccc(-c2nnc(-c3ccc(OC)cc3)o2)cc1`, the IC50 was > 50 µM (inactive). For the same molecule, under setting [1], the IC50 is > 50 µM. The IC50 under setting [2] is > 50 µM.
`O=C(c1cccc(Nc2ncc(-c3ccc4c(c3)OCO4)cn2)c1)N1CCSC1`: the IC50 was 2 µM. The IC50 under setting [1] came out at 13 µM. The IC50 under setting [2] worked out at 1 µM.
Take `O=C(Nc1nc2ccccc2[nH]1)c1c(O)c2cccc3c2n(c1=O)CC3`: the 50% inhibitory concentration (IC50) is 2 µM. Also, the IC50 under setting [1] is > 50 µM. Also, the IC50 under setting [2] was 1 µM.
Consider `CCN(CC)c1nc(N(C)C)nc2c1CN(Cc1ccccc1)CC2`, for which the IC50 was 6.3 µM. Also, under setting [1], the IC50 was determined as 40 µM. Also, under setting [2], the IC50 amounted to 4 µM.
As for `O=C(Nc1ccc(Br)c(Cl)c1)Nc1ccc2c(c1)OCO2`, the IC50 was > 50 µM (inactive). Besides, the IC50 under setting [1] is > 50 µM. Also, the IC50 under setting [2] was > 50 µM.
For `CCCn1c(NC(=O)CCn2cc(Br)cn2)nc2ccccc21`, the IC50 was 10 µM. Besides, the IC50 under setting [1] was > 50 µM. Also, under setting [2], the IC50 amounted to 5 µM.
For `Cc1[nH]n2c(=O)c3c(nc2c1-c1ccc(Cl)cc1)CCCC3`, the IC50 was > 50 µM (inactive). Further, under setting [1], the half-maximal inhibitory concentration (IC50) came to 13 µM. Further, the concentration for half-maximal inhibition (IC50) under setting [2] was > 50 µM.
Regarding `CC(C)c1cc(C(=O)N2CCCC(c3cc4ncccc4[nH]3)C2)on1` (configuration not stated), the IC50 was > 50 µM (inactive). Besides, under setting [1], the IC50 was > 50 µM. For the same molecule, under setting [2], the IC50 was > 50 µM.
Regarding `O=C(c1ccccc1)N1CCC(C(=O)N2CCC(Oc3ccccc3Cl)CC2)CC1`, the IC50 is > 50 µM (inactive). The IC50 under setting [1] was > 50 µM. The molecule also displayed an IC50 under setting [2] of 32 µM.
The matching figures for `CC(c1cc(Cl)cc(Cl)c1)N(C)c1ncc2c(N)nc(N)nc2n1` (configuration not stated): 0.79 µM, 32 µM and 0.25 µM.
As to `N#Cc1ccc(C(=O)Nc2cccc(-c3cccc(CN4CCC(O)CC4)c3)c2)cc1`, the IC50 was 16 µM. Under setting [1], this molecule showed an IC50 of 16 µM. Also, the IC50 under setting [2] was found to be 7.9 µM.
As to `O=C(Cn1cnc([N+](=O)[O-])n1)Nc1ccc(Cl)cc1C(=O)c1ccccc1`, the IC50 is > 50 µM (inactive). Besides, under setting [1], the IC50 was > 50 µM. In addition, the IC50 under setting [2] is > 50 µM.
As for `Cc1c(CNC(=O)c2ccc(Cn3cc(Cl)c([N+](=O)[O-])n3)cc2)cnn1C`, the IC50 was > 50 µM (inactive). The half-inhibitory concentration (IC50) under setting [1] was > 50 µM. The IC50 under setting [2] is > 50 µM.
As to `Cc1nc2c(-c3n[nH]c(-c4ccccc4N)n3)cccn2c1C`, the IC50 is 1.6 µM. Besides, the IC50 under setting [1] was 7.9 µM. Under setting [2], this molecule registered a 50% inhibitory concentration (IC50) of 1 µM.
In the case of `Nc1cc(-c2ccc3ncnc(N4CCOCC4)c3c2)cnc1N`, the IC50 was 10 µM. Besides, under setting [1], the IC50 is > 50 µM. The molecule also showed an IC50 under setting [2] of 1.3 µM.
On to `Cc1ccccc1NS(=O)(=O)c1ccc2[nH]cc(C(=O)NC3CCCC(C)C3C)c(=O)c2c1` (configuration not stated), for which the IC50 is 16 µM. Moreover, the IC50 under setting [1] worked out at 13 µM. In addition, under setting [2], the IC50 worked out at 16 µM.
Take `O=C(Nc1ccc(C(=O)N2CCCC2c2ccc3c(c2)OCCCO3)cc1)c1ccco1` (configuration not stated): the IC50 is 6.3 µM. Also, the IC50 under setting [1] was > 50 µM. The IC50 under setting [2] was found to be 3.2 µM.
Take `CCOc1ccc2nc(NC(=O)c3ccc([N+](=O)[O-])s3)sc2c1`: the IC50 was 6.3 µM. Besides, under setting [1], the half-maximal inhibitory concentration (IC50) is > 50 µM. This molecule displayed an IC50 under setting [2] of 5 µM.
On to `COc1ccc(S(=O)(=O)NC(C)C)cc1Nc1ncc(-c2cccc(F)c2)cn1`, for which the IC50 was > 50 µM (inactive). The IC50 under setting [1] was > 50 µM. Also, under setting [2], the 50% inhibitory concentration (IC50) was > 50 µM.
Turning to `Cc1ccc(S(C)(=O)=O)cc1Nc1nccc(-c2sc(N)nc2-c2ccccc2)n1`, the half-maximal inhibitory concentration (IC50) is 5 µM. For the same molecule, the IC50 under setting [1] was determined as 20 µM. Under setting [2], this molecule yielded an IC50 of 2.5 µM.
In the case of `Oc1cccnc1-c1n[nH]c(Cc2ccccc2)n1`, the IC50 is 3.2 µM. The same molecule showed an IC50 under setting [1] of 16 µM. This molecule also displayed an IC50 under setting [2] of 2 µM.
Turning to `Cc1cc(NC(=O)CC2CCCCC2)n(-c2nc3c(c(=O)[nH]2)CCC3)n1`, the IC50 is 3.2 µM. The molecule further had an IC50 under setting [1] of 4 µM. Under setting [2], the IC50 was found to be 1.6 µM.
For `Cc1cnc(Nc2cc(Cc3ccccc3)nc(NC3CCC(O)CC3)n2)s1` (configuration not stated), the IC50 was 0.04 µM. Also, the IC50 under setting [1] was 0.025 µM. Under setting [2], this molecule had an IC50 of 0.032 µM.
For `NC(=O)c1cc(NC(=O)c2ccccc2COc2ccccc2)ccc1Cl`, the IC50 was 3.2 µM. For the same molecule, the IC50 under setting [1] came to 16 µM. The same molecule registered an IC50 under setting [2] of 1.6 µM.
The matching figures for `O=C(CN(Cc1ccccn1)Cc1ccccn1)NCc1ccc(-c2csnn2)cc1`: 5 µM, > 79 µM and 5 µM.
For the molecule `O=C(Nc1ccccc1)Nc1nc(-c2ccccn2)cs1`, the IC50 was 0.4 µM. Moreover, under setting [1], the IC50 is 6.3 µM. This molecule also yielded an IC50 under setting [2] of 0.25 µM.
On to `c1ccc2sc(Nc3nc4ncccc4[nH]3)nc2c1`, for which the IC50 is 2.5 µM. The molecule also yielded an IC50 under setting [1] of 16 µM. The IC50 under setting [2] came out at 1.3 µM.
`O=S(=O)(NCC(c1cccnc1)N1CCN(c2ccccc2F)CC1)c1ccc(F)cc1` (configuration not stated): the IC50 was > 50 µM (inactive). For the same molecule, the half-inhibitory concentration (IC50) under setting [1] is > 50 µM. The molecule further came in with an IC50 under setting [2] of 4 µM.
Turning to `Cn1nccc1-c1cc(OC(CN)c2ccccc2)cnc1-c1ccco1` (configuration not stated), the IC50 was > 50 µM (inactive). Moreover, the IC50 under setting [1] was 16 µM. The molecule further registered an IC50 under setting [2] of 32 µM.
Take `COc1ccc(C(=O)Nc2ccc(NC(=O)CO)cc2)cc1`: the IC50 was > 50 µM (inactive). The same molecule displayed an IC50 under setting [1] of 20 µM. Besides, the IC50 under setting [2] is > 50 µM.
In the case of `Cc1ccnc(NS(=O)(=O)c2ccc(NC(=O)c3ccc([N+](=O)[O-])s3)cc2)n1`, the IC50 is 10 µM. Under setting [1], this molecule came in with an IC50 of 10 µM. For the same molecule, under setting [2], the IC50 turned out to be 5 µM.
Turning to `CN(C)CCOc1ccc(N2CCN(S(=O)(=O)c3ccc(Cl)cc3)CC2)cc1`, the half-maximal inhibitory concentration (IC50) is 32 µM. In addition, the IC50 under setting [1] was > 50 µM. Further, the IC50 under setting [2] was 32 µM.
As to `COc1ccc(CN2CCCCC2c2nc(-c3cccnc3)no2)cc1` (configuration not stated), the IC50 was > 50 µM (inactive). Further, the IC50 under setting [1] is > 50 µM. Besides, the IC50 under setting [2] was > 50 µM.
Consider `O=C(NCc1nnc2n1CCCCC2)c1ccc(-c2ccc(F)cc2)o1`, for which the IC50 is > 50 µM (inactive). Under setting [1], the IC50 is > 50 µM. Moreover, under setting [2], the IC50 is > 50 µM.
On to `CC(C)(C)C(=O)Nc1cc(C2CC2)nn1-c1nc2c(c(=O)[nH]1)CCCC2`, for which the IC50 was 5 µM. This molecule also displayed an IC50 under setting [1] of 7.9 µM. The molecule also returned an IC50 under setting [2] of 2 µM.
